Results as given in patent US20240336594A1, “SIX-MEMBERED ARYL OR HETEROARYL AMIDES, AND COMPOSITION AND USE THEREOF” (BETTA PHARMACEUTICALS CO., LTD, priority 2021, published 2024).

What was measured:
MALT1 = target: T1, MALT1 (Homo sapiens, UniProt Q9UDY8); experiment: MALT1 protease inhibition assay (AMC-labeled peptide, fluorescence 360/460); format: biochemical; conditions: substrate Ac-LRSR-AMC, 15 min preincubation, 90 min at 25° C.
T1 sequence (Q9UDY8 1-824): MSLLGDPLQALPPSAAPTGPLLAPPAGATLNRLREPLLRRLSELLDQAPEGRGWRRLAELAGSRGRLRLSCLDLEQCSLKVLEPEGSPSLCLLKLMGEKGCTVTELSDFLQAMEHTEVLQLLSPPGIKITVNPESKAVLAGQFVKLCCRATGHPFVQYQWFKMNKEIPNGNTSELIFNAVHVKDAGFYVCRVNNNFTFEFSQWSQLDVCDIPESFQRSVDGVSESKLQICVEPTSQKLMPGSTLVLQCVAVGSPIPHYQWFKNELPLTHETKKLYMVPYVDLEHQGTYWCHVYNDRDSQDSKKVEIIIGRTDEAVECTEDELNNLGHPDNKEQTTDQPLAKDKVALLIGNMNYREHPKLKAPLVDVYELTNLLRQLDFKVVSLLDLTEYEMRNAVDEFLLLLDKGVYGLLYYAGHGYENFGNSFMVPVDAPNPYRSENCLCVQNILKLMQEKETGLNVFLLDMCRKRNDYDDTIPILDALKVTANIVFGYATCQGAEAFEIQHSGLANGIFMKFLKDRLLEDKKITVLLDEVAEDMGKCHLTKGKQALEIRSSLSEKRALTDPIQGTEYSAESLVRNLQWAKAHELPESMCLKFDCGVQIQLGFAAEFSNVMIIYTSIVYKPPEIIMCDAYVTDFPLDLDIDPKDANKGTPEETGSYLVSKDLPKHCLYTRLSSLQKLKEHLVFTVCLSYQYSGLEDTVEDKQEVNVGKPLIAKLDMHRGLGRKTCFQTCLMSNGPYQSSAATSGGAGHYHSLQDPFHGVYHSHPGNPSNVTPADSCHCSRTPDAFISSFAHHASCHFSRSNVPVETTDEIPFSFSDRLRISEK
In short: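 Recombinant MALT1 preincubated with test compounds (10-point 1:3 dilutions in DMSO, duplicates) for 15 min at 25 °C in citrate-containing protease buffer with DTT, then AMC-labeled peptide added for 90 min at 25 °C. Inhibition normalized to no-compound (max) and no-enzyme (min) wells; IC50 from curve fit.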

[1] = system: IL-2 secretion of Jurkat cells (PMA/Ionomycin inducing); experiment: ELISA method to detect IL-2 secretion induced by PMA/Ionomycin; format: cell-based; conditions: Homo sapiens, 20 h
Protocol: 12.5*10^3 Jurkat cells were seeded on a 96-well plate and incubated with various concentrations of compound solution for 30 min. Then, 500×PMA/Ionomycin stimulating factor was diluted with culture medium and added to the cell plate. […] The final concentrations of the compounds were 10000, 3333.3, 1111.1, 370.4, 123.5, 41.2, 13.7, 4.6, 1.5, 0 nM (The final concentration of DMSO is 0.5%). After incubation for 20 h, the supernatant was collected via centrifugation. The final IL-2 concentration was detected by ELISA method (IL-2 Duoset, R&D Systems, DY202). The signal value of each sample at a wavelength of 450 nm was collected by EnVision multifunctional microplate reader and converted to the IL-2 concentration via the ELISACalc.exe software. The IL-2 secretion inhibitory activity IC50 was fitted by GraphPad Prism software. The cell viability was tested simultaneously using the Cell-Titer Glo kit.
The compounds of the present invention show strong inhibitory effect on IL-2 secretion of Jurkat cells (PMA/Ionomycin inducing).

IC50 (MALT1) [nM]	IC50 [1] [nM]	SMILES
≤ 10	76	Nc1cncc(C2CC2)c1-c1cc(Cl)c(C(=O)Nc2cnc(-n3nccn3)c(Cl)c2)cc1F [Example A506, 4-(3-amino-5-cyclopropylpyridin-4-yl)-2-chloro-N-(5-chloro-6-(2H-1,2,3-triazol-2-yl)pyridin-3-yl)-5-fluorobenzamide]
≤ 10	58	Nc1cc(F)ccc1-c1cc(F)c(C(=O)Nc2cnc(-n3nccn3)c(C(F)(F)F)c2)cc1Cl [Example A123, N-(6-(2H-1,2,3-triazol-2-yl)-5-(trifluoromethyl)pyridin-3-yl)-2′-amino-2-chloro-4′,5-difluoro-[1,1′-biphenyl]-4-carboxamide]
≤ 10	40	Cc1cc(-c2ccc(F)cc2Cl)c(F)cc1C(=O)Nc1cnc(-n2nccn2)c(Cl)c1 [Example A115, 2′-chloro-N-(5-chloro-6-(2H-1,2,3-triazol-2-yl)pyridin-3-yl)-2,4′-difluoro-5-methyl-[1,1′-biphenyl]-4-carboxamide]
≤ 10	77	C#Cc1cnccc1-c1cc(Cl)c(C(=O)Nc2cnc(C(=O)NCC#N)c(Cl)c2)cc1F [Example A427, 3-chloro-5-(2-chloro-4-(3-ethynylpyridin-4-yl)-5-fluorobenzamido)-N-(cyanomethyl)picolinamide]
≤ 10	121	Nc1cc(F)ccc1-c1cc(Cl)c(C(=O)Nc2cnc(-n3nccn3)c(C(F)(F)F)c2)cc1F [Example A122, N-(6-(2H-1,2,3-triazol-2-yl)-5-(trifluoromethyl)pyridin-3-yl)-2′-amino-5-chloro-2,4′-difluoro-[1,1′-biphenyl]-4-carboxamide]
≤ 10	57	Nc1cc(F)ccc1-c1cc(F)c(C(=O)Nc2cnc(-n3nccn3)c(Cl)c2)cc1Cl [Example A120, 2′-amino-2-chloro-N-(5-chloro-6-(2H-1,2,3-triazol-2-yl)pyridin-3-yl)-4′,5-difluoro-[1,1′-biphenyl]-4-carboxamide]
≤ 10	94	Nc1ccccc1-c1cc(Cl)c(C(=O)Nc2cnc(-n3nccn3)c(Cl)c2)cc1F [Example A109, 2′-amino-5-chloro-N-(5-chloro-6-(2H-1,2,3-triazol-2-yl)pyridin-3-yl)-2-fluoro-[1,1′-biphenyl]-4-carboxamide]
≤ 10	32	C#Cc1cc(F)cc(N)c1-c1cc(Cl)c(C(=O)Nc2cnc(-n3nccn3)c(Cl)c2)cc1F [Example A412]
≤ 10	466	Nc1ccccc1-c1cc(F)c(C(=O)Nc2cnc(-n3nccn3)c(Cl)c2)cc1Cl [Example A119, 2′-amino-2-chloro-N-(5-chloro-6-(2H-1,2,3-triazol-2-yl)pyridin-3-yl)-5-fluoro-[1,1′-biphenyl]-4-carboxamide]
≤ 10	444	CNc1cc(F)ccc1-c1cc(F)c(C(=O)Nc2cnc(-n3nccn3)c(Cl)c2)cc1Cl [Example A127, 2-chloro-N-(5-chloro-6-(2H-1,2,3-triazol-2-yl)pyridin-3-yl)-4′,5-difluoro-2′-(methylamino)-[1,1′-biphenyl]-4-carboxamide]
≤ 10	34	Cc1cc(-c2ccc(F)cc2Br)c(F)cc1C(=O)Nc1cnc(-n2nccn2)c(Cl)c1 [Example A114]
≤ 10	17	C#Cc1cncc(N)c1-c1cc(Cl)c(C(=O)Nc2cnc(-n3nccn3)c(Cl)c2)cc1F [Example A411, 4-(3-amino-5-ethynylpyridin-4-yl)-2-chloro-N-(5-chloro-5-(2H-1,2,3-triazol-2-yl)pyridin-3-yl)-5-fluorobenzamide]
≤ 10	35	Cc1cc(-c2ccc(F)cc2N)c(F)cc1C(=O)Nc1cnc(-n2nccn2)c(Cl)c1 [Example A113]
≤ 10	136	Cc1cc(-c2ccncc2Cl)c(F)cc1C(=O)Nc1cnc(-n2nccn2)c(Cl)c1 [Example A126]
≤ 10	77	O=C(Nc1cnc(-n2nccn2)c(Cl)c1)c1cc(F)c(-c2ccc(F)cc2CO)cc1Cl [Example A281]
≤ 10	77	C#Cc1cnccc1-c1cc(Cl)c(C(=O)Nc2cnc(C(=O)NC)c(Cl)c2)cc1F [Example A426, 3-chloro-5-(2-chloro-4-(3-ethynylpyridin-4-yl)-5-fluorobenzamido)-N-methylpicolinamide]
≤ 10	66	C#Cc1cncc(N)c1-c1cc(Cl)c(C(=O)Nc2cnc(-n3nccn3)c(C(F)(F)F)c2)cc1F [Example A410, N-(6-(2H-1,2,3-triazol-2-yl)-5-(trifluoromethyl)pyridin-3-yl)-4-(3-amino-5-ethynylpyridin-4-yl)-2-chloro-5-fluorobenzamide]
